In patent US7135489B2, “Crystalline form of 4-[5-methyl-3-phenylisoxazol-4-yl] benzenesulfonamide” (G. D. Searle & Co., priority 1996, dated 2006):

Assays:
Assay type in all cases: physicochemical
[1] = Stability of crystalline form compared with the earlier form; conditions: compared with earlier material Form A
[2] = Stability after mechanical grinding (milling)
[3] = Thermal stability of crystal form
Method: Melting points were performed either on a Thomas Hoover melting point apparatus or a Mettler FP900 Thermosystem melting point apparatus. Melting ranges were determined by differential scanning calorimetry on a TA Instruments Differential Scanning Calorimeter (Model 2100 controller, Model 912 dual calorimeter). The sample (1-2 mg) was placed in an unsealed aluminum pan and heated at 10° C./minute.

Row | stability relative to Form A [1] | stability after mechanical grinding (milling) [2] | thermal stability [3] | SMILES
1 | more stable | – | – | Cc1onc(-c2ccccc2)c1-c1ccc(S(N)(=O)=O)cc1 [Form B, 4-[5-methyl-3-phenylisoxazol-4-yl]benzenesulfonamide]
2 | – | unstable | thermally unstable | Cc1onc(-c2ccccc2)c1-c1ccc(S(N)(=O)=O)cc1 [Form A, 4-[5-methyl-3-phenylisoxazol-4-yl]benzenesulfonamide]
